On the set-up of data set [1]: species or system human. The note with it: in vivo. From the text:
Normal volunteers with no evidence or history of diabetes mellitus or of cardiac, liver, renal or pulmonary diseases were studied. The subjects consisted of 3 males and 1 female, ranging in age from 31 to 37 years, in body weight from 47 to 92 kg, and in body mass index (BMI) from 19.2 to 25.5. The purpose and possible risks of the study were explained to all subjects, and their voluntary written consent was obtained. The study protocol was approved by the Committee for the Protection of Human Subjects of the Institutional Review Board at Vanderbilt University School of Medicine. All studies were performed at the Clinical Research Center (CRC). Subjects were placed on balanced weight-maintenance diets for at least one week before the start of the study. Meat was excluded from the subjects' diets for three days before the study and during the study.
All studies were performed after a 10-12 hour overnight fast. On the morning of the experiment (6.30 to 7.00 hours), an 18-gauge Angiocatheter™ (Benton Dickinson, Sandy, Utah) was placed in a superficial hand vein of the nondominant arm for blood sampling. The hand was heated to 55° C. to ensure complete arterialization (Abumrad, N.N. et al., "Use of a heated superficial hand vein as an alternative site for the measurement of amino acid concentrations and for the study of glucose and alanine kinetics in man," Metabolism (1981) 30:936-940). In addition, a 16-gauge angiocatheter was inserted into the contralateral forearm vein for the infusion of L-3-[methyl-^2 H3 ]-histidine (MSD Isotopes, Montreal, Canada). Finally, another catheter was threaded retrograde into the brachial vein of the dominant arm and used for sampling of the forearm tissue.
(§1) Each study was four days in duration. Starting at t=0 (8.00 hours), subjects were administered a bolus infusion of L-3-[methyl^2 H3 ]-histidine (D3 -3-methylhistidine) at 0.13 μmol/kg into the forearm vein of the dominant arm. The infusate was passed through a Millex-GS sterilizing filter (0.22 μm; Millipore Products Divisions, Bedford, Mass.) before the infusion. Blood samples were obtained from the superficial hand vein and from the deep forearm vein at 0, 1, 2, 5, 10, 15, 30, 45, 90, 150, 210, 270, 330, and 720 min. postinjection. During this time, the subjects were required to stay at the Clinical Research Center, although they were allowed to ambulate freely within their rooms. Free access to food and drink was allowed after the 330-min sample. After 720 min, the catheters were removed and the patients were allowed to go home. For the following three days, the subjects returned to the CRC each morning before eating for further blood sampling by percutaneous venous puncture at 1,440, 2,880, and 4,320 min postinjection. Urine was collected over 24 hour periods the day before and for three days after tracer infusion.
Blood was collected in heparinized syringes, transferred to tubes containing Na2 EDTA (15 mg/tube), and centrifuged. The plasma obtained was immediately placed on ice. An aliquot of the plasma was processed for determination of 3-methylhistidine concentration as well as the L-3-[methyl-^2 H3 ]-histidine:3-methylhistidine isotope enrichment. The remainder of the plasma was frozen at -70° C. The urine obtained was processed for the determination of creatinine both as a measure of the completeness of the collection (Pencharz, P. B. et al., "The effect of an energy-restricted diet on the protein metabolism of obese adolescents: nitrogen-balance and whole-body nitrogen turnover," Clin. Sci. (1980) 59:13-18), and for the estimation of lean body mass (Blackburn, G. L. et al., "Nutritional and metabolic assessment of hospitalized patients," J. Parenter. Enteral. Nutr. (1977) 1:11-22). […]

Details of data set [2]: species or system human. The note with it: in vivo. The protocol: as §1
Blood was collected in heparinized syringes, transferred to tubes containing Na2 EDTA (15 mg/tube), and centrifuged. The plasma obtained was immediately placed on ice. An aliquot of the plasma was processed for determination of 3-methylhistidine concentration as well as the L-3-[methyl-^2 H3 ]-histidine:3-methylhistidine isotope enrichment. The remainder of the plasma was frozen at -70° C. […] Urinary 3-methylhistidine concentration and production were also measured (Rathmacher, J. A. et al., "Gas chromatographic-mass spectrometric analysis of stable isotopes of 3-methylhistidine in biological fluids: application to plasma kinetics in vivo," Biol. Mass Spectrom. (1992) 21:560-566). […]
This is another data set of the same source.

The conditions of data set [3]: Nishizawa et al.; cited from earlier work.

The text below walks through data of patent publication US5628328A, “Method for measuring muscle mass” (priority 1995, dated 1997).

On to `Cn1cnc(C[C@H](N)C(=O)O)c1` [3-methylhistidine], for which, in data set [1], the “3MH Production” value was 3.1 µmol/kg/day, the “L0,1 fractional transfer rate” value is “.004 min⁻¹”, the “L1,2 fractional transfer rate” value was “.06 min⁻¹” and the “L2,3 fractional transfer rate” value is “.002 min⁻¹”. Besides, in data set [1], the “L3,2 fractional transfer rate” value was “.009 min⁻¹”; the “M1, compartment mass” value was found to be 603 nmol/kg; the “M2, compartment mass” value is 912 nmol/kg; the “M3, compartment mass” value stood at 7938 nmol/kg. In addition, in data set [1], the “Plasma levels of 3-methylhistidine over time” value is on record as “did not change over the four days of the study”, the “R01 mass transfer rate” value amounted to 2.2 nmol/kg/min, the “R12 mass transfer rate” value came to 53 nmol/kg/min and the “R21 mass transfer rate” value is 51 nmol/kg/min. For the same compound, in data set [1], the “R23 mass transfer rate” value was found to be 9.6 nmol/kg/min, the “R32 mass transfer rate” value was 7.9 nmol/kg/min, the “Size of compartment 2 relative to compartment 1” value turned out to be 1.5 times and the “Size of compartment 3 relative to compartment 1” value was 13 times. Further, the “Urinary 3MH loss” value in data set [1] is 100 % of total. Also, in data set [2], the “Model 3-methylhistidine production above urinary estimate” value is reported as 16%, the “Model 3-methylhistidine production versus urinary production” value was “qualitatively similar” and the “Urinary 3-methylhistidine production versus model estimate” value is given as “lower than the model estimate”. Moreover, the “Contribution of skin and intestine to total body pool of 3-methylhistidine” value in data set [3] was “up to 10%”.
